Target: T1, murine SR-BI (Mus musculus, UniProt Q61009)
T1 construct: expressed in transfected cells; host or cells: ldlA-7 (LDL receptor deficient Chinese hamster ovary cells)
T1 sequence (Q61009 1-509): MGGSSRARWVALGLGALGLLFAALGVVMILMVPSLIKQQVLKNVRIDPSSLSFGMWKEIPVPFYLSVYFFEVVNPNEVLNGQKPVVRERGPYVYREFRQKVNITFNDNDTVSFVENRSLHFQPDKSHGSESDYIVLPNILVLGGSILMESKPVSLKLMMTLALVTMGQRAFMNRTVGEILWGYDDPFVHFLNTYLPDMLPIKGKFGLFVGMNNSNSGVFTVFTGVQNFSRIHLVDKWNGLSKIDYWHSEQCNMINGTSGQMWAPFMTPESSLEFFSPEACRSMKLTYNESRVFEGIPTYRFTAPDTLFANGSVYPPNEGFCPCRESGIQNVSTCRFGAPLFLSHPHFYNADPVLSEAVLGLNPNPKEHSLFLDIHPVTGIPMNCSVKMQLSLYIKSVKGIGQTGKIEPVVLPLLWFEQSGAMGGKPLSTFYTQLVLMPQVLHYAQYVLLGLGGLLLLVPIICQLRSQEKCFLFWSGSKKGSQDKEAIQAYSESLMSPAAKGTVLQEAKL
Assay: Uptake of DiI from DiI-HDL by ldlA[mSR-BI] cells (high throughput screen and concentration dependence)
Format: cell-based

[1] = DiI uptake from DiI-HDL, compounds at nominal 10 micromolar, ldlA[mSR-BI] cells

| Structure (SMILES) | ENDOHDL Test 1 | ENDOHDL Test 2 | ENDOHDL Test 1 [1] | ENDOHDL Test 2 [1] |
| --- | --- | --- | --- | --- |
| COC(=O)Cn1c2c(c3cc(C)ccc31)CCCC2NC(C)c1ccccc1 (stereo not shown) [MIT 9952-180] | 0.43 | 0.45 |  |  |
| Cc1nn(-c2ccc([N+](=O)[O-])cc2)c(Cl)c1[N+](=O)[O-] [MIT 9952-103] | 0.56 | 0.61 |  |  |
| CC(CC(=O)NCCc1c[nH]c2ccccc12)C(=O)Cl (stereo not shown) [MIT 9952-12] | 1.25 | 1.26 |  |  |
| [O-][n+]1onc2c3cc(-c4ccccc4)[nH]c3ccc21 [MIT 9952-59] | 0.35 | 0.44 |  |  |
| CCN(CC)CC(=O)Nc1ccc2c(c1)N(C(=O)c1ccccc1)c1ccccc1CC2.Cl [MIT 9952-178] | 0.4 | 0.38 |  |  |
| O=C(COc1ccc(Cl)cc1)N/N=C/c1ccc(Cl)cc1 [MIT 9952-124] | 1.33 | 1.17 |  |  |
| CN1CCc2c(c3ccccc3n2-c2ccccc2)C1.Cl [MIT 9952-197] | 0.58 | 0.71 |  |  |
| O=C(/C=C/C=C(Cl)Cl)c1ccc2c(c1)OCO2 [MIT 9952-298] |  |  | 1.29 | 1.24 |
| CCn1c(COC)c(-c2ccccc2)c2cc([N+](=O)[O-])ccc21 [MIT 9952-143] | 0.66 | 0.65 |  |  |
| COc1cccc(NC(=O)c2sc(-c3ccccc3)nc2-c2ccc([N+](=O)[O-])cc2)c1 [MIT 9952-118] | 0.51 | 0.63 |  |  |
| C=CC[n+]1c(C)n(CC)c2cc(Cl)c(Cl)cc21.[I-] [MIT 9952-169] | 0.54 | 0.6 |  |  |
| CCN(CC)C(=O)N1CCN(c2ccc(Nc3ccnc4cc5ccccc5cc34)cc2)CC1 [MIT 9952-141] | 0.63 | 0.77 |  |  |
| O=C1CC(N2CCOCC2)C(=O)N1c1ccc(Br)cc1 (stereo not shown) [MIT 9952-81] | 1.32 | 1.17 |  |  |
| O=[N+]([O-])c1cccc(/C=N\Nc2nc(Nc3ccc(Cl)cc3)nc(N3CCOCC3)n2)c1 [MIT 9952-209] | 0.46 | 0.59 |  |  |
| O=C(Cl)CCNC(=O)c1ccccc1 [MIT 9952-18] | 1.21 | 1.22 |  |  |
| Br.NS(=O)(=O)c1ccc(Nc2nc(-c3ccc(Cl)cc3)cs2)cc1 [MIT 9952-293] |  |  | 0.69 | 0.67 |
| CC(=O)c1c(C)n(-c2ccccc2)c2ccc(O)cc12 [MIT 9952-119] | 0.62 | 0.64 |  |  |
| O=C(NC(NC(=S)Nc1cccc2ccccc12)C(Cl)(Cl)Cl)c1cccc([N+](=O)[O-])c1 (stereo not shown) [MIT 9952-102] | 0.56 | 0.49 |  |  |
| Nc1nc(-c2ccccc2)nc2sc3c(c12)CCCC3 [MIT 9952-15] | 0.55 | 0.61 |  |  |
| CN(C)/C=N/C(=O)CN1CCCC1=O [MIT 9952-148] | 1.44 | 1.32 |  |  |
| O=C(N/N=C\c1cccn1-c1ccc([N+](=O)[O-])cc1)c1ccccc1 [MIT 9952-199] | 0.52 | 0.46 |  |  |

| Structure (SMILES) | ENDOHDL Test 1 | ENDOHDL Test 2 | ENDOHDL Test 1 [1] | ENDOHDL Test 2 [1] |
| --- | --- | --- | --- | --- |
| CCOCc1c(C)cc(C)c(/C=N/Nc2ccc([N+](=O)[O-])cc2)c1C [MIT 9952-174] | 0.6 | 0.62 |  |  |
| O=C(N/N=C\c1ccccc1O)c1ccc(O)cc1 [MIT 9952-170] | 0.54 | 0.54 |  |  |
| O=C(N/N=C/c1cc2c(cc1Br)OCO2)c1cccc(Cl)c1 [MIT 9952-281] |  |  | 0.59 | 0.34 |
| O=C(O)c1cc(C(=O)O)nc(C(=O)O)c1 [MIT 9952-319] |  |  | 1.13 | 1.17 |
| CC(F)(F)c1cccc(NC(=O)c2sc(-c3ccccc3)nc2-c2ccc([N+](=O)[O-])cc2)c1 [MIT 9952-166] | 0.56 | 0.67 |  |  |
| Cc1cc(C)c(NC(=O)C2CCCN2N)c(C)c1 (stereo not shown) [MIT 9952-276] | 0.73 | 0.68 |  |  |
| O=C(NNC(=O)c1cccc2ccccc12)c1ccc(NC(=O)c2cccc3ccccc23)cc1 [MIT 9952-217] | 0.57 | 0.53 |  |  |
| O=C(CC1=CCCCC1)Nc1cc([N+](=O)[O-])ccc1Cl [MIT 9952-46] | 1.32 | 1.18 |  |  |
| O=C1CC(N2CCOCC2)C(=O)N1c1ccc(Br)cc1 (stereo not shown) [MIT 9952-17] | 1.32 | 1.17 |  |  |
| NSCc1nc(-c2ccc(Cl)cc2)no1 [MIT 9952-64] | 0.58 | 0.58 |  |  |
| CCN1/C(=C/c2sc3ccccc3[n+]2CC)Sc2ccccc21.Cc1ccc(S(=O)(=O)[O-])cc1 [MIT 9952-267] | 0.57 | 1.11 |  |  |
| CCn1c2ccccc2c2cc(/C=N/NC(N)=S)ccc21 [MIT 9952-330] |  |  | 0.59 | 0.56 |
| Nc1ccc(C(=O)Nc2ccc(-c3nc4ccc(NC(=O)c5ccc(N)cc5)c(Cl)c4[nH]3)cc2Cl)cc1 [MIT 9952-334] |  |  | 0.57 | 0.55 |
| CCOC1=C(C(C)=O)NC(c2ccc(OC)cc2)C(=S)N1 (stereo not shown) [MIT 9952-278] | 0.71 | 0.67 |  |  |
| O=C(Nc1ccc(Cl)c([N+](=O)[O-])c1)c1cccc(C(=O)Nc2ccc(Cl)c([N+](=O)[O-])c2)c1 [MIT 9952-219] | 0.55 | 0.55 |  |  |
| O=C(CC1=CCCCC1)Nc1cc([N+](=O)[O-])ccc1O [MIT 9952-167] | 1.32 | 1.18 |  |  |
| CCOC(=O)C1=C(c2ccc(Cl)cc2)C(=O)c2ccccc2C1=O [MIT 9952-315] |  |  | 0.51 | 0.53 |
| COc1ccc([N+](=O)[O-])cc1NC(=O)c1ccccc1 [MIT 9952-238] | 0.61 | 0.6 |  |  |
| O=C(Cl)c1ccccc1NS(=O)(=O)/C=C/c1ccccc1 [MIT 9952-4] | 1.17 | 1.33 |  |  |
| O=C(/C=C/c1ccccc1)NC(NC(=S)Nc1cccc([N+](=O)[O-])c1)C(Cl)(Cl)Cl (stereo not shown) [MIT 9952-7] | 0.5 | 0.51 |  |  |

Source: patent publication US20040171073A1, “Compounds for modulation of cholesterol transport” (Massachusetts Institute of Technology, priority 2002, published 2004)
